# No end group written: not given here.
# Columns and labels:
# [1] = tested on: Freeze Injury to Brain (vascular permeability of brain); test: Cold (freeze) injury to rat brain, vascular leakage by Monastral blue staining; assay type: in vivo
# Description: An in vivo model of injury to study brain edema has been developed as a reproducible edema model, which has the features of immediate cortical damage followed by the subsequent development of brain edema. This model is described by Chan et al., Brain Research, 277, pp. 329-337 (1983). The model uses rats which are anesthetized. A 2.5 cm incision is made over the sagittal suture and the bone of the right hemisphere exposed. A 60 mm^2 plate attached to a brass cup filled with dry ice-acetone mixture, with a temperature of -50° C., is applied to the rat skull for one minute. The animals are sacrificed at various intervals after the onset of cold-injury. A dye is administered intravenously before the freezing. Cortical slices are then obtained of the brain.
# Sixteen male rats were randomly divided into eight pairs and one rat in each pair received either saline or CRF (subcutaneously twice at 30 μg/kg, 30 min and 10 min before cold injury). The animals were anesthetized with sodium pentobarbital, 60 mg/kg intraperitoneally, and injected with Monastral blue, 60 mg/kg intravenously. A cold probe was applied onto the skull for four minutes and the brains taken out one hour after cold injury. The staining of brain tissues with Monastral blue, a colloidal pigment that gets trapped between the albuminal surface of the endothelial cell and the basement membrane, was proportional to the degree of vascular leakage. The results from the first pair are shown as FIG. 1.
# The size of the lesion, measured as area in mm^2, and the degree of staining intensity, were quantified using an image-analysis software program called JAVA (Jandel Corporation, San Rafael, Calif.). The stain intensity, given in arbitrary units, was internally calibrated using Monastral blue solutions (1-30 mg/ml) placed on white filter paper. Values are mean ± S.E.M.
# [2] = tested on: vascular leakage produced by PAF-acether; test: Vascular leakage produced by PAF-acether injected subcutaneously into the abdomen; assay type: in vivo, rat
# Procedure: CRF: 30 μg/kg s.c. injected 30 minutes before subcutaneous
# injection of PAF-acether (1 μg/0.1 ml/rat) into the abdomen;
# muscle removed 0.5 hour later.
# [3] = tested on: neutropenic rats infected with Pseudomonas; test: Neutropenic rat model of sepsis (Pseudomonas infection), survival; assay type: in vivo; details: CRF 100 μg/kg i.v. twice a day for four days after onset of fever; day 11; 9/15; P<0.002 vs saline (100% mortality by day 8)
# Description: The neutropenic rat model of sepsis, designed to mimic the systemic inflammatory response syndrome in humans, is described by Collins et al. from The Journal of Infectious Diseases, 159:6 (June 1989) and The Journal of Clinical Investigation, 88:885 (September 1991). […] The animals die from overwhelming infection within 7 to 9 days of infection and examination of the tissues with histological and pathological techniques reveal the characteristic organic manifestations of the systemic inflammatory response syndrome, namely, organ edema and tissue necrosis.
# In a typical experiment, 10 rats serving as controls received saline and 15 rats received CRF at a dose of 100 μg/kg intravenously, given twice a day for four days after the onset of fever. At the end of 8 days, all of the animals in the control group were dead (100% mortality). By contrast, 60% (9/15) of the CRF group were still alive at day 11 when the experiment was concluded. The difference between the saline and CRF treated groups were statistically significant (P<0.002).
# [4] = tested on: cerebral cortex and basal ganglia (brain edema); test: Freeze injury of cerebral cortex, water and sodium content as index of brain edema; assay type: in vivo, rat; details: CRF 30 μg/kg s.c. 2×, ± S.E.M., N = 5
# Procedure: In a second set of experiments, the brain surface, namely the cerebral cortex, was injured by freezing and the water and sodium content were measured in the cerebral cortex and in the basal ganglia, a part of the brain away from the freeze zone. The water and sodium content of the brain tissue served as an index of brain edema. After freeze injury, the water and sodium content of the cerebral cortex were evaluated relative to non-frozen tissues. CRF administered in two separate doses of 30 μg/kg subcutaneously, one dose 15 minutes before the injury and the second dose 90 minutes after the first dose, inhibited the two indices of brain edema.
# Male SpragueDawley rats, 300-325 g, anesthetized with
# ketamineacepromazine, were injected saline or CRF (30 μg/kg s.c.
# 2×) and injury to cerebral cortex was produced by applying a cold
# probe to the skull for 1 min. Brain tissues were obtained 3 hr later and
# analyzed for water and sodium content.
# [5] = tested on: abdominal muscle wall (vascular leakage after celiotomy); test: Vascular leakage after celiotomy (4 cm midline incision of abdominal muscle wall), Monastral blue; assay type: in vivo, rat; details: for Area / Intensity / Lesion Size: tissues 0.5 hour after surgery; for lesion size relative to that of the saline-treated group: celiotomy
# Procedure: Experiments were conducted on male Sprague-Dawley rats 243±15 gm (S.D., Simonsen Labs., Gilroy, Calif.) anesthetized with sodium pentobarbital, 60 mg/kg i.p. Monastral blue, 60 mg/kg i.v., was injected 0.2 ml/100 g, 3 minutes before a 4 cm midline incision through the abdominal muscle wall (celiotomy). Saline or CRF was administered to randomized pairs with N=8 rats per group. The size of the lesion, measured as area in mm^2, and its light intensity, were quantified using the JAVA image-analysis software program. The light intensity, given in arbitrary units, was internally calibrated using Monastral blue solutions (1-30 mg/ml) placed on white filter paper. Values are mean ± S.E.M. FIG. 2 illustrates the respective amount of vascular permeability for one pair of rats (control and treated). Tables III and IV set out data from these experiments.
# CRF: injected at various doses subcutaneously 30 minutes
# before a 4 cm midline incision, tissues taken 0.5 hour
# CRF: 30 μg/kg s.c. injected 2 hour before a 4 cm
# midline incision, tissues taken 0.5 hour after surgery
# [6] = CRF 30 μg/kg s.c. twice, 30 min and 10 min before cold injury, brains taken 1 hour after injury, mean ± S.E.M.
# [7] = CRF 30 μg/kg s.c. 30 minutes before PAF-acether 1 μg/0.1 ml/rat s.c., muscle removed 0.5 hour later
# [8] = injured cerebral cortex, tissue 3 hr after 1 min cold probe
# [9] = non-injured basal ganglia, tissue 3 hr after injury
# [10] = CRF 15 μg/kg s.c. 30 minutes before incision
# [11] = CRF 30 μg/kg s.c. 30 minutes before incision
# [12] = CRF 30 μg/kg s.c. 2 hour before incision
# [13] = CRF 60 μg/kg s.c. 30 minutes before incision
substance,measurement,setting,value
"CRF: 41 amino acid neuropeptide, mammalian corticotropin-releasing factor; stimulates ACTH release from pituitary cells (SEEPPISLDLTFHLLREVLEMARAEQLAQQAHSNRKLMEII; not fully specified; ends and bridges not checked; UniProt P06850 154-194, looked up)",Area,[1]; [6],20.8 ± 1.2 mm^2
same,Intensity (staining intensity),[1]; [6],2.0 ± 0.05 arbitrary units
same,Lesion Size,[1]; [6],43 ± 3
same,lesion size relative to that of the saline-treated group,"[1]; brain cold injury, CRF 30 μg/kg s.c. twice",44%
same,correct assignment of brains to saline or CRF group by an observer unaware of pretreatment,"[1]; eight pairs of rats, more damaged vs less damaged brain",8 out of 8
same,muscle lesion size relative to that of the saline-treated control group,[2]; CRF 30 μg/kg s.c. 30 minutes before PAF-acether,44%
same,Area,[2]; [7],188 ± 16 mm^2
same,Intensity,[2]; [7],1.4 ± 0.05
same,Lesion Size,[2]; [7],260 ± 26
same,animals still alive (survival),[3],60%
same,"SODIUM, cerebral cortex",[4]; [8],271 ± 8 mEg/kg dry wt
same,"WATER CONTENT, cerebral cortex",[4]; [8],77 ± 4%
same,"SODIUM, basal ganglia",[4]; [9],215 ± 9 mEg/kg dry wt
same,"WATER CONTENT, basal ganglia",[4]; [9],76 ± 1%
same,Area,[5]; [10],505 ± 16 mm^2
same,Intensity,[5]; [10],2.0 ± 0.03 arbitrary units
same,Lesion Size,[5]; [10],1031 ± 44
same,Area,[5]; [11],361 ± 18 mm^2
same,Intensity,[5]; [11],1.9 ± 0.05 arbitrary units
same,Lesion Size,[5]; [11],676 ± 47
same,Area,[5]; [12],477 ± 31 mm^2
same,Intensity,[5]; [12],1.9 ± 0.03 arbitrary units
same,Lesion Size,[5]; [12],919 ± 51
same,Area,[5]; [13],257 ± 3 mm^2
same,Intensity,[5]; [13],1.8 ± 0.05 arbitrary units
same,Lesion Size,[5]; [13],468 ± 19
same,lesion size relative to that of the saline-treated group,[5]; [10],63%
same,lesion size relative to that of the saline-treated group,[5]; [11],42%
same,lesion size relative to that of the saline-treated group,[5]; CRF 30 μg/kg s.c. 2 hours before injury,59%
same,lesion size relative to that of the saline-treated group,[5]; [13],29%

# Source: US5488033A, “Treatment to reduce edema” (The Regents of the University of California, priority 1994, dated 1996)
